From ChEMBL document CHEMBL1201862, “PubChem BioAssay data set” (2004)
Several values for one entry are separate records, joined by “and”; a condition that tells them apart may be missing. Identical values can stand only once. Activity calls are given as the source filed them.

Tests used:
[1] = target: T1, Alkaline phosphatase, tissue-nonspecific isozyme (Homo sapiens, UniProt P05186); assay: human TNAP enzyme inhibitors, SAR follow-up, biochemical, luminescent, dose response (AID 1056)
T1 sequence (P05186 whole entry): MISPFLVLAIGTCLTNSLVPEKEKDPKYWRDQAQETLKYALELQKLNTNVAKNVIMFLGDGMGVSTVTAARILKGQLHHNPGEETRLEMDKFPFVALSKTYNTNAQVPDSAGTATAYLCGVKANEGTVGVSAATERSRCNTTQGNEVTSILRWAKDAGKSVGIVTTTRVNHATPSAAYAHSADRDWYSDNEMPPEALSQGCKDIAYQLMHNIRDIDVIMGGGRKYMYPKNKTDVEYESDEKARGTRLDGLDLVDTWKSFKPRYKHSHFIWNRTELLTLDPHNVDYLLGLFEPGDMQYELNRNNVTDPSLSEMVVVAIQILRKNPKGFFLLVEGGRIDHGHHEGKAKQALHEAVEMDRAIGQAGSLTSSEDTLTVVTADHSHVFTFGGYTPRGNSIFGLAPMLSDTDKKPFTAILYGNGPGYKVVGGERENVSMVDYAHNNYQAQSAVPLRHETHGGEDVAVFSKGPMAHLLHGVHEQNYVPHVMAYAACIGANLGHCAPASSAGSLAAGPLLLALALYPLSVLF

[2] = target: Glyceraldehyde-3-phosphate dehydrogenase (Homo sapiens, UniProt P04406)
Sequence of Glyceraldehyde-3-phosphate dehydrogenase (P04406 whole entry): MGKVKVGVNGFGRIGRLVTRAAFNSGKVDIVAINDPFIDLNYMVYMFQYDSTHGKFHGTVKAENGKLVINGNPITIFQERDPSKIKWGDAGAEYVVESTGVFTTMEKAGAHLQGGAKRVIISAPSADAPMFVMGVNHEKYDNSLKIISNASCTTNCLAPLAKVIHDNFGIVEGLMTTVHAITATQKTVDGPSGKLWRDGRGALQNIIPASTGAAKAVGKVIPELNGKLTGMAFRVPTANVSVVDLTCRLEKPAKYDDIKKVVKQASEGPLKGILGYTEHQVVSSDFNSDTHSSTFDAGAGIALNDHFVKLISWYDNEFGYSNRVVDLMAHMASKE

[3] = target: Induced myeloid leukemia cell differentiation protein Mcl-1 (Homo sapiens, UniProt Q07820); assay type: functional
Sequence of Induced myeloid leukemia cell differentiation protein Mcl-1 (Q07820 whole entry): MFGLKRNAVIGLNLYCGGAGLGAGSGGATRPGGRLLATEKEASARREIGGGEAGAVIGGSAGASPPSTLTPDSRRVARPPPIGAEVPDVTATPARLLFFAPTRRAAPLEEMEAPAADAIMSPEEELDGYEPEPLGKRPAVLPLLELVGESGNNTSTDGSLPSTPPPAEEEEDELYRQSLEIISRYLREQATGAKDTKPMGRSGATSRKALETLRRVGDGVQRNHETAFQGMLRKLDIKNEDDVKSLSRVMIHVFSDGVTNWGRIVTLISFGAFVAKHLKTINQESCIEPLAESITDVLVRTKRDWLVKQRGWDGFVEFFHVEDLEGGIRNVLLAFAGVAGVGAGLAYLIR

[4] = target: T2, DNA dC->dU-editing enzyme APOBEC-3G (Homo sapiens, UniProt Q9HC16); assay: Dose Response confirmation of small molecule APOBEC3G DNA Deaminase Inhibitors via a fluorescence-based single-stranded DNA deaminase assay. [Related pubchem assays (depositor defined):AID493012, AID493028]; assay type: functional
T2 sequence (Q9HC16 whole entry): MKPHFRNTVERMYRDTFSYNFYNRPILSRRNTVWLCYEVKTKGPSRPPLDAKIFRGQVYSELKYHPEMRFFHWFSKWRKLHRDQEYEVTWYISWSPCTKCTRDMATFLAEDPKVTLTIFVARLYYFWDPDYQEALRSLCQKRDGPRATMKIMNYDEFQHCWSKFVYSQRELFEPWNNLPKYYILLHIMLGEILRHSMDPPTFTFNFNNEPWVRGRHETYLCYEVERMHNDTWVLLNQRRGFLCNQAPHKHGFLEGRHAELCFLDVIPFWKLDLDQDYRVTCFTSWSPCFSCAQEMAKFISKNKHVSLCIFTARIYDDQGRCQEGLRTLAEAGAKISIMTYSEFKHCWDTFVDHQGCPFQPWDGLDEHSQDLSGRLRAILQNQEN

[5] = target: T3, DNA dC->dU-editing enzyme APOBEC-3A (Homo sapiens, UniProt P31941); assay: APOBEC3A DNA deaminase inhibitors, dose response, biochemical (AID 504722); assay type: functional
T3 sequence (P31941 whole entry): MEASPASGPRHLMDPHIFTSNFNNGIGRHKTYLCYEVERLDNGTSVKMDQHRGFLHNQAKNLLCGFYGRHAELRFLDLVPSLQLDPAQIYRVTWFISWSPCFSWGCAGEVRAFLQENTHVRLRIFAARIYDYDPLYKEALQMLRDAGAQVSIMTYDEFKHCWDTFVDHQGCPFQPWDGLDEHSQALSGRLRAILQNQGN

[6] = cytotoxicity in HEK-293T cells, dose response, cytotoxicity control for BCR NF-kB inhibitor project, luminescence, B-cell screen hits (AID 489021); assay type: functional, cell-based;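 note: HEK-293T cells carrying an NF-kB luciferase reporter; cells exposed to compound for about 14 hours before viability readout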
[7] = target: T4, Cytochrome P450 3A4 (Homo sapiens, UniProt P08684); details: Potency
T4 sequence (P08684 whole entry): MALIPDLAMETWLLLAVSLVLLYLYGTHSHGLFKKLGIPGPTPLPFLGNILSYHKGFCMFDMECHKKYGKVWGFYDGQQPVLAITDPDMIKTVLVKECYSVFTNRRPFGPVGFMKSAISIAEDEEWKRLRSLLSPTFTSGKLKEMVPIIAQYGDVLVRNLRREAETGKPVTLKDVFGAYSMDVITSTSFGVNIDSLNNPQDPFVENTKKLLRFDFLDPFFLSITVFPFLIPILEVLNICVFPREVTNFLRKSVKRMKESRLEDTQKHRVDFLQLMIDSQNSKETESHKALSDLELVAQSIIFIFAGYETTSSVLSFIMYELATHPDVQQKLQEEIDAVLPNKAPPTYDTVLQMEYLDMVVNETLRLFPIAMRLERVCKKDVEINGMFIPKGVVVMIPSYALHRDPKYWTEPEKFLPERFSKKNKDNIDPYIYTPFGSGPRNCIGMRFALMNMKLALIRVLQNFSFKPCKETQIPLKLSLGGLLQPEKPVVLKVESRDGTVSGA

[8] = target: Cytochrome P450 2C9 (Homo sapiens, UniProt P11712)
Sequence of Cytochrome P450 2C9 (P11712 whole entry): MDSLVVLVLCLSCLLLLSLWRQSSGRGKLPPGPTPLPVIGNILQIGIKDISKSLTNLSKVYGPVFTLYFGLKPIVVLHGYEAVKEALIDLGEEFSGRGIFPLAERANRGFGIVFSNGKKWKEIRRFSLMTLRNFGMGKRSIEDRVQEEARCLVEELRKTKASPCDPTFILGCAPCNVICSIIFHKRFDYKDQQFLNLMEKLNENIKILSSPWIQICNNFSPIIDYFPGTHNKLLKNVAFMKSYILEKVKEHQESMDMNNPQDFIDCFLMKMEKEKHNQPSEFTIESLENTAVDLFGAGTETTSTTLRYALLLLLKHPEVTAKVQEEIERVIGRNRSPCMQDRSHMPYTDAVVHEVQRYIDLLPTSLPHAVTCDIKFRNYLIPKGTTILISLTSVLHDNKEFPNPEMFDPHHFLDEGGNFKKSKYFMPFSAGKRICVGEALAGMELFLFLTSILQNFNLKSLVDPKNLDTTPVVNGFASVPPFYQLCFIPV

[9] = target: Glucose-6-phosphate 1-dehydrogenase (Homo sapiens, UniProt P11413); assay: human G6PD enzyme inhibitors, dose response, selectivity assay for P. falciparum G6PD inhibitor project, biochemical, fluorescence (AID 504792); assay type: functional
Sequence of Glucose-6-phosphate 1-dehydrogenase (P11413 whole entry): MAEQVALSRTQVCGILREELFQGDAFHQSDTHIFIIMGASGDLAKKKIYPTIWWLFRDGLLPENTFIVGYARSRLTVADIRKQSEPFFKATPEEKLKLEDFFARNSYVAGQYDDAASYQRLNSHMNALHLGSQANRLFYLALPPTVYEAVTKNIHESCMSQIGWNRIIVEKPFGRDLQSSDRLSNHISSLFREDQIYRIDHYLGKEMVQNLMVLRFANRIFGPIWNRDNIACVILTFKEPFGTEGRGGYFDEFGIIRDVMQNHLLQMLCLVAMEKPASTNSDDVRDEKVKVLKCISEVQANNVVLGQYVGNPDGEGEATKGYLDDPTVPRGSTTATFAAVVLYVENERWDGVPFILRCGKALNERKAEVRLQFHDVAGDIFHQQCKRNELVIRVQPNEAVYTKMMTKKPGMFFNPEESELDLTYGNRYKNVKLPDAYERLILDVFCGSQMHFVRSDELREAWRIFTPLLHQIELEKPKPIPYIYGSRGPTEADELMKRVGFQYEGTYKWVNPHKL

[10] = cells; assay type: functional
[11] = THP-1 cell cytotoxicity, dose response, cytotoxicity control for non-replicating M. tuberculosis project (AID 489025); assay type: functional
[12] = target: Troponin, cardiac muscle (Homo sapiens, UniProt P19429+P45379+P63316); assay: Fluorescence-based biochemical high throughput dose response assay for activators of the calcium sensitivity of cardiac Regulated Thin Filaments (RTF). [Related pubchem assays (depositor defined):AID493008, AID493018, AID504382, AID504383]; assay type: protein-complex assay
[13] = target: T5, RNA-binding protein pos-1 (Caenorhabditis elegans, UniProt G5EF15); assay: inhibitors of POS-1/mex-3 RNA binding, dose response, biochemical, fluorescence polarization (AID 1964);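 note: purified POS-1 fused to maltose binding protein made in E. coli; potency of compounds blocking POS-1 binding to fluorescent RNA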
T5 sequence (G5EF15 whole entry): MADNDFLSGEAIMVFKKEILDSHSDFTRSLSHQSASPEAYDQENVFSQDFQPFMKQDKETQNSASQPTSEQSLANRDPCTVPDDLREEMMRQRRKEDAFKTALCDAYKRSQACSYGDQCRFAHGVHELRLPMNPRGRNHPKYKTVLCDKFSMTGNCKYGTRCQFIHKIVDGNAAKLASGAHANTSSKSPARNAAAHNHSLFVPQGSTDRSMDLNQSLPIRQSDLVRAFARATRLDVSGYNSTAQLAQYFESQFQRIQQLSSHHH

[14] = target: T6, Zinc finger protein mex-5 (Caenorhabditis elegans, UniProt Q9XUB2); assay: MEX-5/TCR-2 RNA interaction inhibitors, dose response, biochemical, C. elegans, fluorescence polarization (AID 1960)
T6 sequence (Q9XUB2 whole entry): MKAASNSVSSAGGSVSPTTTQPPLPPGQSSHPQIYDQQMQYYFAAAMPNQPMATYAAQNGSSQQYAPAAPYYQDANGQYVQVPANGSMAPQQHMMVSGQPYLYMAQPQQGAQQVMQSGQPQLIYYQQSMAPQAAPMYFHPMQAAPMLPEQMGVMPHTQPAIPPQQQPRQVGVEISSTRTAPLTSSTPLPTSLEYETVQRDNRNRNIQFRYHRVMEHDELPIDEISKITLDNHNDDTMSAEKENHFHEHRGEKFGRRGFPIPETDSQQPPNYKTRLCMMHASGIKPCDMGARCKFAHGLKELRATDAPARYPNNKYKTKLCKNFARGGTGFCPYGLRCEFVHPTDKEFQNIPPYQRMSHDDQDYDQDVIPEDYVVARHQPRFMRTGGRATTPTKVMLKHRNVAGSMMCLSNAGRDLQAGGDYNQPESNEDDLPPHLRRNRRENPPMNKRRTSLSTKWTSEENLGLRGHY

[15] = target: T3, DNA dC->dU-editing enzyme APOBEC-3A; assay: Dose Response confirmation of small molecule APOBEC3A DNA Deaminase Inhibitors via a fluorescence-based single-stranded DNA deaminase assay. [Related pubchem assays (depositor defined):AID493011, AID493024]; assay type: functional
[16] = target: T2, DNA dC->dU-editing enzyme APOBEC-3G; assay type: functional
[17] = target: T7, Short transient receptor potential channel 4 (Mus musculus, UniProt Q9QUQ5); assay: mouse TRPC4 channel activators, dose response, cell-based, HEK293 TRPC4/mu-opioid, Fluo-4 calcium (AID 434937); assay type: functional
T7 sequence (Q9QUQ5 whole entry): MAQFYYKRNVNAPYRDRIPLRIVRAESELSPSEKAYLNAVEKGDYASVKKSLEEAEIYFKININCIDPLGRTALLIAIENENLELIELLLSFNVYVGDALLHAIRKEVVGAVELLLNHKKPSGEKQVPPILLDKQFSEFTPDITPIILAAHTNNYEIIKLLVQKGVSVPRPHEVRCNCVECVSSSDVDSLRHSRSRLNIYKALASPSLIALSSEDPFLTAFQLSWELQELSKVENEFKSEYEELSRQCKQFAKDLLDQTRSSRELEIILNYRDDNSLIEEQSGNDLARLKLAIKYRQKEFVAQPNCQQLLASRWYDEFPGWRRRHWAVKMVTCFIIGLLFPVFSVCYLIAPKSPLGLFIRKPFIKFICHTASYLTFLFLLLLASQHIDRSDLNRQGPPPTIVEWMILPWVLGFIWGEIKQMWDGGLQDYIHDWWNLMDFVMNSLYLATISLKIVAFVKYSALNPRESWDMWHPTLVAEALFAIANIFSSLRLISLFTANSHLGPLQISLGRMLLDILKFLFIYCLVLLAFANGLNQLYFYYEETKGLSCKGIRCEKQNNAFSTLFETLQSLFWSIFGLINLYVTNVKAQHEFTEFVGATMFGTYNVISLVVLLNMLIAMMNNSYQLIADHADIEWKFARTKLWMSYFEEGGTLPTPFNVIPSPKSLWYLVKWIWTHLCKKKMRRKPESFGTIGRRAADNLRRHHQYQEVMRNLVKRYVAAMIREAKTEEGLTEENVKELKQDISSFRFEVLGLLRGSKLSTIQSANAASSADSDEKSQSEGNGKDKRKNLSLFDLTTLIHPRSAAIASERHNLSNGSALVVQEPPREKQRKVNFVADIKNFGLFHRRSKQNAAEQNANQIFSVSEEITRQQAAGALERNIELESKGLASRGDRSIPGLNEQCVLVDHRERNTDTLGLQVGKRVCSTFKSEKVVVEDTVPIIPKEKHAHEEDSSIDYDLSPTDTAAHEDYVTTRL

[18] = cells
[19] = cytotoxicity toward NIH3T3 fibroblasts, dose response, counter-screen, cell-based, ATP luminescence, mouse fibroblasts (AID 2010); assay type: functional;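 note: cells exposed to compound for about 90 hours before reading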
[20] = inhibitors of intracellular T. cruzi replication, confirmation, NIH3T3 host cells, beta-gal luminescence (AID 2044); assay type: functional, cell-based;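 note: intracellular parasites grown in NIH/3T3 mouse fibroblasts as host cells; luminescent beta-galactosidase reporter signal from transgenic T. cruzi replicating inside host cells; inhibitors lower the luminescence signal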
[21] = target: T4, Cytochrome P450 3A4
[22] = tested on: H9c2; assay: cells; assay type: functional, cell-based; details: Rattus norvegicus, H9c2, Myocardium;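 note: confirmatory concentration-response retest of ultra-high-throughput screening hits for modulation of myocardial damage; cell death induced by hydrogen peroxide oxidative stress; compound pretreatment for 60 min then peroxide exposure for 2 h; potency is for protecting the cells against peroxide damage rather than for killing them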
[23] = Luminescence Cell-Based Dose Response to Identify Activators of Luciferase Translation or Activity in H4-C Neuroglioblastoma Cells. [Related pubchem assays: 1829 (Project Summary), 1814 (Primary HTS)]; assay type: functional
[24] = Luminescence Cell-Based Dose Response to Identify Activators of 5'UTR Stem-Loop Driven Prion Protein mRNA Translation in H4-C Neuroglioblastoma Cells. [Related pubchem assays: 1829 (Project Summary), 1814 (Primary HTS)]; assay type: functional
[25] = tested on: H4; assay: Luminescence Cell-Based Dose Response HTS to Identify Activators of 5'UTR Stem-Loop Driven Prion Protein mRNA Translation in H4 Neuroglioblastoma Cells. [Related pubchem assays: 1829 (Project Summary), 1814 (Primary HTS)]; assay type: functional; details: Homo sapiens
[26] = Luminescence Cell-Based Dose Response HTS to Identify Activators of Luciferase Translation or Activity in H4 […] Cells. [Related pubchem assays: 1829 (Project Summary), 1814 (Primary HTS)]; assay type: functional
[27] = Luminescence Cell-Based Dose Confirmation to Identify Activators of 5'UTR Stem-Loop Driven Alpha-Synuclein mRNA Translation in H4 Neuroglioblastoma Cells. [Related pubchem assays: 1829 (Project Summary), 1814 (Primary HTS)]; assay type: functional
[28] = Luminescence Cell-Based Dose Confirmation HTS to Identify Activators of 5'UTR Stem-Loop Driven Alpha-Synuclein mRNA Translation in H4 Neuroglioblastoma Cells. [Related pubchem assays: 1829 (Project Summary), 1814 (Primary HTS)]; assay type: functional

Cc1ccc(S(=O)(=O)Nc2ccc3ccccc3c2)cc1
IC50 [1]: > 100 µM (inactive) | IC50 [2]: > 100 µM (not active)

Cn1c(SCC(=O)Nc2ccc3nc(SCC(=O)N4CCCC4)sc3c2)nnc1-c1ccccc1
IC50 [3]: 2.83 µM (active)

Fc1ccccc1/C=N/n1c(S)nnc1-c1cccnc1
IC50 [4]: 3.16 µM (active) | IC50 [5]: > 100 µM (inactive)

Cn1c(=O)c2c(SCC(=O)Nc3ccccc3F)nc(-c3ccccc3F)nc2n(C)c1=O
IC50 [6]: > 80 µM (inactive)

CCCCC/C=C\C/C=C\C/C=C\C/C=C\CCCC(=O)O [ARACHIDONIC ACID]
AC50 [7]: 39.8 µM (inconclusive) and 7.94 µM (inconclusive)

CC(=C\C(=O)O)/C(=C/c1ccccc1)C(=O)O
AC50 [8]: inconclusive

CCN(CC)c1ccc(/C=C2/C(=O)ON=C2C)cc1
IC50 [6]: > 80 µM (inactive)

COC(=O)c1cnn(C(=O)c2cc(OC)ccc2Br)c1N
AC50 [8]: inconclusive

Cc1cc(C)c2sc(NC(=O)C3=COCCO3)nc2c1
IC50 [9]: > 80 µM (inactive)

Cc1ccccc1OCCNc1cc(N2CC(C)NC(C)C2)ccc1[N+](=O)[O-] (stereo not given)
IC50 [10]: 12.8 µM (active) | CC50 [11]: 21.4 µM (active)

CC(=O)N1CCc2c(sc(NC(=O)C3CCCN3S(=O)(=O)c3cccs3)c2C(N)=O)C1 (stereo not given)
EC50 [12]: 18.5 µM (inactive) | EC50 [13]: 10.2 µM (active) | EC50 [14]: 5.83 µM (active)

C[N+](C)(C)CCOC(=O)C1(c2ccccc2)CCCC1
IC50 [15]: 1.06 µM (active) | IC50 [16]: 1.12 µM (active)

CN(CC(=O)NCc1ccco1)S(=O)(=O)c1cccc2cccnc12
EC50 [12]: > 71.5 µM (inactive)

COC(=O)c1cc(N2CCNCC2)nc2ccccc12
EC50 [17]: 1.19 µM (active)

O=C(NCCc1c[nH]cn1)c1ccc(-c2ccccc2)cc1
EC50 [18]: 0.062 µM (active) | EC50 [19]: > 30 µM (not active) | EC50 [20]: < 0.1 µM (active) | EC50 [17]: 5.96 µM (active)

Cc1ccc2c(c1)C1(SCCS1)C(=O)N2
AC50 [8]: inconclusive | AC50 [21]: 11.2 µM (inconclusive)

CCc1nc(NCCc2ccccn2)c2nnn(Cc3ccccc3F)c2n1
EC50 [17]: 2.66 µM (active)

COCCNc1nc(C)nc2c1nc(-c1ccccc1)n2CCN1CCCC1
AC50 [7]: 25.1 µM (inconclusive)

Cc1ccc(C)c(S(=O)(=O)N2CCN(C(=O)CCc3nc(O)c4ccccc4n3)CC2)c1
EC50 [17]: 4.73 µM (active) | IC50 [22]: > 79 µM (inactive)

Cc1ccc(/C=N/n2c(S)nnc2-c2ccncc2)o1
IC50 [4]: 6.55 µM (active) | IC50 [5]: > 100 µM (inactive)

Nn1c(COc2ccc(Cl)cc2)n[nH]c1=S
IC50 [4]: 2.49 µM (active) | IC50 [5]: > 100 µM (inactive)

COc1cccc(C(=O)N/N=C/c2ccc(Oc3ccc([N+](=O)[O-])cn3)c(OC)c2)c1
IC50 [15]: 3.44 µM (active) | IC50 [16]: 3.84 µM (active)

Cc1ccc(NC(=O)C2CCCN(c3ncccn3)C2)cc1F (stereo not given)
EC50 [23]: 0.856 µM (active) | EC50 [24]: 1.22 µM (active) | EC50 [25]: 6.45 µM (active) | EC50 [26]: 0.125 µM (inconclusive) | EC50 [27]: 0.141 µM (active) | EC50 [28]: < 0.1 µM (active)

Fc1ccc(/C=N/NC2=Nc3cccc4cccc2c34)cc1
EC50 [23]: 0.343 µM (active) | EC50 [24]: 0.233 µM (active) | EC50 [25]: < 0.1 µM (active) | EC50 [26]: < 0.1 µM (inconclusive) | EC50 [27]: 0.278 µM (active)

O=S(=O)(Nc1cnc2ccccc2c1)c1ccc(Br)cc1OC(F)(F)F
IC50 [1]: 1.5 µM (active) | IC50 [2]: > 100 µM (not active)

Nc1cccc2ccccc12
AC50 [7]: 31.6 µM (inconclusive)
